From PubChem BioAssay AID1963833 (Molecular Pharmacology Branch, DTP, NCI, 2024)

Tested on: 883617-216-R-J1-PDC complex spheroid viability
Test: Anticancer human tumor 883617-216-R-J1-PDC patient-derived bladder carcinoma cell line growth inhibition [POLQ]
Conditions: for IC50: curve of first compound; for viability, T/C: stronger effect = lower value
Outline: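 Patient-derived tumour cells were co-cultured with HUVEC and mesenchymal stem cells as multicellular spheroids at 37 °C. They were treated with POLQ inhibitors (novobiocin, ART-558, RP6685) alone or combined with other agents. Top concentrations were at or near clinical Cmax (otherwise 10 microM; SN-38 at 1 microM), decreasing in half-log steps.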

[1] = second compound 0.0316 µM, first compound 0.0316 µM
[2] = second compound 0.0316 µM, first compound 0.1 µM
[3] = second compound 0.0316 µM, first compound 0.316 µM
[4] = second compound 0.0316 µM, first compound 1 µM
[5] = second compound 0.0316 µM, first compound 3.16 µM
[6] = second compound 0.0316 µM, first compound 10 µM
[7] = second compound 0.1 µM, first compound 0.0316 µM
[8] = second compound 0.1 µM, first compound 0.1 µM
[9] = second compound 0.1 µM, first compound 0.316 µM
[10] = second compound 0.1 µM, first compound 1 µM
[11] = second compound 0.1 µM, first compound 3.16 µM
[12] = second compound 0.1 µM, first compound 10 µM
[13] = second compound 0.316 µM, first compound 0.0316 µM
[14] = second compound 0.316 µM, first compound 0.1 µM
[15] = second compound 0.316 µM, first compound 0.316 µM
[16] = second compound 0.316 µM, first compound 1 µM
[17] = second compound 0.316 µM, first compound 3.16 µM
[18] = second compound 0.316 µM, first compound 10 µM
[19] = second compound 1 µM, first compound 0.0316 µM
[20] = second compound 1 µM, first compound 0.1 µM
[21] = second compound 1 µM, first compound 0.316 µM
[22] = second compound 1 µM, first compound 1 µM
[23] = second compound 1 µM, first compound 3.16 µM
[24] = second compound 1 µM, first compound 10 µM
[25] = second compound 3.16 µM, first compound 0.0316 µM
[26] = second compound 3.16 µM, first compound 0.1 µM
[27] = second compound 3.16 µM, first compound 0.316 µM
[28] = second compound 3.16 µM, first compound 1 µM
[29] = second compound 3.16 µM, first compound 3.16 µM
[30] = second compound 3.16 µM, first compound 10 µM
[31] = second compound 10 µM, first compound 0.0316 µM
[32] = second compound 10 µM, first compound 0.1 µM
[33] = second compound 10 µM, first compound 0.316 µM
[34] = second compound 10 µM, first compound 1 µM
[35] = second compound 10 µM, first compound 3.16 µM
[36] = second compound 10 µM, first compound 10 µM
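Note: spheroids exposed to compounds for seven days before readout.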
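Throughout, for viability, T/C: 100% = DMSO vehicle control viability.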

In the case of COc1cc2cc(C(=O)CCC(=O)O)sc2cc1OC + Nc1ccc(C#CCN(C(=O)Cc2ncc(C(F)(F)F)cc2C(F)(F)F)c2ccc(F)cc2)nn1, the IC50 (second compound 0.0316 µM) is reported as > 10 µM, the IC50 (second compound 0.1 µM) is reported as > 10 µM and the IC50 (second compound 0.316 µM) is reported as > 10 µM. The IC50 (second compound 1 µM) was > 10 µM, the IC50 (second compound 3.16 µM) was > 10 µM and the IC50 (second compound 10 µM) was > 10 µM. For the same compound, the viability, T/C [1] was 109%, the viability, T/C [2] was 107% and the viability, T/C [3] was 123%. The viability, T/C [4] was 93.5%, the viability, T/C [5] was 105% and the viability, T/C [6] was 104%. For the same compound, the viability, T/C [7] was 112%, the viability, T/C [8] was 90.6% and the viability, T/C [9] was 101%. For the same compound, the viability, T/C [10] was 95.5%, the viability, T/C [11] was 101% and the viability, T/C [12] was 107%. The viability, T/C [13] was 90.7%, the viability, T/C [14] was 101% and the viability, T/C [15] was 94.9%. It also gave a viability, T/C [16] of 100%, a viability, T/C [17] of 114% and a viability, T/C [18] of 106%. For the same compound, the viability, T/C [19] was 97.1%, the viability, T/C [20] was 125% and the viability, T/C [21] was 108%. It also gave a viability, T/C [22] of 102%, a viability, T/C [23] of 91.5% and a viability, T/C [24] of 95.6%. For the same compound, the viability, T/C [25] was 114%, the viability, T/C [26] was 115% and the viability, T/C [27] was 115%. It also gave a viability, T/C [28] of 83.2%, a viability, T/C [29] of 92.5% and a viability, T/C [30] of 120%. For the same compound, the viability, T/C [31] was 122%, the viability, T/C [32] was 128% and the viability, T/C [33] was 122%. It also gave a viability, T/C [34] of 113%, a viability, T/C [35] of 155% and a viability, T/C [36] of 110%.

For COc1ccc([C@@H](O)c2cc(-c3ncnc4cc(N5CCOCC5)ccc34)c(F)cc2Cl)nn1 + Nc1ccc(C#CCN(C(=O)Cc2ncc(C(F)(F)F)cc2C(F)(F)F)c2ccc(F)cc2)nn1, the IC50 (second compound 0.0316 µM) was 2.81 µM, the IC50 (second compound 0.1 µM) was 2.8 µM and the IC50 (second compound 0.316 µM) was 2.66 µM. It also gave an IC50 (second compound 1 µM) of 3.41 µM, an IC50 (second compound 3.16 µM) of 2.87 µM and an IC50 (second compound 10 µM) of 2.5 µM. It also gave a viability, T/C [1] of 104%, a viability, T/C [2] of 92.5% and a viability, T/C [3] of 90.1%. It also gave a viability, T/C [4] of 66.7%, a viability, T/C [5] of 48% and a viability, T/C [6] of 36.6%. It also gave a viability, T/C [7] of 75.6%, a viability, T/C [8] of 97.9% and a viability, T/C [9] of 84.6%. It also gave a viability, T/C [10] of 63.2%, a viability, T/C [11] of 51.9% and a viability, T/C [12] of 33.1%. The viability, T/C [13] was 108%, the viability, T/C [14] was 99.7% and the viability, T/C [15] was 84.3%. The viability, T/C [16] was 62.8%, the viability, T/C [17] was 49.8% and the viability, T/C [18] was 31.4%. It also gave a viability, T/C [19] of 94.8%, a viability, T/C [20] of 89.3% and a viability, T/C [21] of 77.9%. It also gave a viability, T/C [22] of 68.2%, a viability, T/C [23] of 50% and a viability, T/C [24] of 35.9%. The viability, T/C [25] was 96.3%, the viability, T/C [26] was 102% and the viability, T/C [27] was 90.8%. The viability, T/C [28] was 68.3%, the viability, T/C [29] was 50.6% and the viability, T/C [30] was 37.1%. It also gave a viability, T/C [31] of 108%, a viability, T/C [32] of 103% and a viability, T/C [33] of 101%. The viability, T/C [34] was 75.5%, the viability, T/C [35] was 43.6% and the viability, T/C [36] was 32.6%.

For O=C(Nc1ccc(O)c(NS(=O)(=O)c2ccc(F)cc2)c1)c1ccc(-c2ccccc2)cc1 + Nc1ccc(C#CCN(C(=O)Cc2ncc(C(F)(F)F)cc2C(F)(F)F)c2ccc(F)cc2)nn1, the IC50 (second compound 0.0316 µM) was > 10 µM, the IC50 (second compound 0.1 µM) was > 10 µM and the IC50 (second compound 0.316 µM) was > 10 µM. For the same compound, the IC50 (second compound 1 µM) was > 10 µM, the IC50 (second compound 3.16 µM) was > 10 µM and the IC50 (second compound 10 µM) was > 10 µM. For the same compound, the viability, T/C [1] was 91.5%, the viability, T/C [2] was 92.5% and the viability, T/C [3] was 102%. The viability, T/C [4] was 82.8%, the viability, T/C [5] was 79.3% and the viability, T/C [6] was 71%. It also gave a viability, T/C [7] of 106%, a viability, T/C [8] of 104% and a viability, T/C [9] of 90.1%. The viability, T/C [10] was 84.1%, the viability, T/C [11] was 88.4% and the viability, T/C [12] was 70.1%. The viability, T/C [13] was 90.4%, the viability, T/C [14] was 102% and the viability, T/C [15] was 97.6%. It also gave a viability, T/C [16] of 85.5%, a viability, T/C [17] of 81.7% and a viability, T/C [18] of 72.5%. The viability, T/C [19] was 91.8%, the viability, T/C [20] was 95.4% and the viability, T/C [21] was 96.3%. For the same compound, the viability, T/C [22] was 84.3%, the viability, T/C [23] was 87.9% and the viability, T/C [24] was 66.1%. It also gave a viability, T/C [25] of 101%, a viability, T/C [26] of 101% and a viability, T/C [27] of 104%. For the same compound, the viability, T/C [28] was 88.1%, the viability, T/C [29] was 86.5% and the viability, T/C [30] was 72.2%. It also gave a viability, T/C [31] of 116%, a viability, T/C [32] of 108% and a viability, T/C [33] of 115%. The viability, T/C [34] was 97.8%, the viability, T/C [35] was 117% and the viability, T/C [36] was 72.6%.
